# System: HBV
# Assay: HepAD38 anti-HBV assay: reduction of viral product accumulation (virion DNA qPCR, HBsAg/HBeAg ELISA)
# Format: cell-based
# Settings: Hepatitis B virus, 120 h; HepAD38 cells; concentration reducing viral product accumulation by 50% relative to no drug controls; harvest five days after compound addition; read-out: HepAD38 EC50
# Outline: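 EC50 values reflect 50% reduction, relative to untreated controls, in virion DNA (qPCR) or HBsAg/HBeAg (ELISA) from lysates or supernatants. Washed HepAD38 cells without tetracycline were exposed to compound for 5 days. In the 8-day variant, medium and compound were renewed on days 2 and 5.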
row,Structure (SMILES),EC50 [µM]
1,O=S(=O)(CCCc1nnn[nH]1)N[C@H]1CC2=C(c3ccn(C(F)F)n3)[C@H](c3ccc(F)cc3Cl)N=C(c3nccs3)N2C1 [Example 137],> 0.4
2,O[C@]1(CN2CCOCC2)CC2=C(c3ccn(C(F)F)n3)[C@H](c3ccc(F)cc3Cl)N=C(c3nccs3)N2C1 [Example 138],> 0.4
3,O[C@@]1(CN2CCOCC2)CC2=C(c3ccn(C(F)F)n3)[C@H](c3ccc(F)cc3Cl)N=C(c3nccs3)N2C1 [Example 139],0.1 to 0.4
4,OC1(Cc2nnn[nH]2)CC2=C(c3ccn(C(F)F)n3)[C@H](c3ccc(F)cc3Cl)N=C(c3nccs3)N2C1 (stereo partly shown) [Example 141],> 0.4
5,CSC[C@@]1(O)CC2=C(c3ccn(C(F)F)n3)[C@H](c3ccc(F)cc3Cl)N=C(c3nccs3)N2C1 [Example 142],> 0.4
6,CSC[C@]1(O)CC2=C(c3ccn(C(F)F)n3)[C@H](c3ccc(F)cc3Cl)N=C(c3nccs3)N2C1 [Example 143],0.1 to 0.4
7,CS(=O)(=O)C[C@@]1(O)CC2=C(c3ccn(C(F)F)n3)[C@H](c3ccc(F)cc3Cl)N=C(c3nccs3)N2C1 [Example 144],0.1 to 0.4
8,CS(=O)(=O)C[C@]1(O)CC2=C(c3ccn(C(F)F)n3)[C@H](c3ccc(F)cc3Cl)N=C(c3nccs3)N2C1 [Example 145],> 0.4
9,CS(=O)(=O)NC[C@]1(N)CC2=C(c3ccn(C(F)F)n3)[C@H](c3ccc(F)cc3Cl)N=C(c3nccs3)N2C1 [Example 146],> 0.4
10,C=CCNC[C@]1(N)CC2=C(c3ccn(C(F)F)n3)[C@H](c3ccc(F)cc3Cl)N=C(c3nccs3)N2C1 [Example 147],> 0.4
11,CS(=O)(=O)NC[C@@]1(N)CC2=C(c3ccn(C(F)F)n3)[C@H](c3ccc(F)cc3Cl)N=C(c3nccs3)N2C1 [Example 148],> 0.4
12,C=CCNC[C@@]1(N)CC2=C(c3ccn(C(F)F)n3)[C@H](c3ccc(F)cc3Cl)N=C(c3nccs3)N2C1 [Example 149],> 0.4
13,COC(=O)N1CCN(S(=O)(=O)N[C@H]2CC3=C(c4ccn(C(F)F)n4)[C@H](c4ccc(F)cc4Cl)N=C(c4nccs4)N3C2)CC1 [Example 152],< 0.1
14,O=S(=O)(NCC1(O)CC1)N[C@H]1CC2=C(c3ccn(C(F)F)n3)[C@H](c3ccc(F)cc3Cl)N=C(c3nccs3)N2C1 [Example 158],0.1 to 0.4
15,C[C@@H](NS(=O)(=O)N[C@H]1CC2=C(c3ccn(C(F)F)n3)[C@H](c3ccc(F)cc3Cl)N=C(c3nccs3)N2C1)c1ccccn1 [Example 159],> 0.4
16,C[C@H](NS(=O)(=O)N[C@H]1CC2=C(c3ccn(C(F)F)n3)[C@H](c3ccc(F)cc3Cl)N=C(c3nccs3)N2C1)c1ccccn1 [Example 160],< 0.1
17,O=C1NC2(CCN(S(=O)(=O)N[C@H]3CC4=C(c5ccn(C(F)F)n5)[C@H](c5ccc(F)cc5Cl)N=C(c5nccs5)N4C3)CC2)CO1 [Example 162],< 0.1
18,O=C1NCC2(CCN(S(=O)(=O)N[C@H]3CC4=C(c5ccn(C(F)F)n5)[C@H](c5ccc(F)cc5Cl)N=C(c5nccs5)N4C3)CC2)O1 [Example 163],< 0.1
19,CC(C)(C)[Si](C)(C)OCC1(F)CC2=C(c3ccn(C(F)F)n3)[C@H](c3ccc(F)cc3Cl)N=C(c3nccs3)N2C1 (stereo partly shown) [Example 164],> 0.4
20,OC[C@]1(F)CC2=C(c3ccn(C(F)F)n3)[C@H](c3ccc(F)cc3Cl)N=C(c3nccs3)N2C1 [Example 165],0.1 to 0.4

row,Structure (SMILES),EC50 [µM]
1,OC[C@@]1(F)CC2=C(c3ccn(C(F)F)n3)[C@H](c3ccc(F)cc3Cl)N=C(c3nccs3)N2C1 [Example 166],0.1 to 0.4
2,OCC[C@]1(F)CC2=C(c3ccn(C(F)F)n3)[C@H](c3ccc(F)cc3Cl)N=C(c3nccs3)N2C1 [Example 167],> 0.4
3,OCC[C@@]1(F)CC2=C(c3ccn(C(F)F)n3)[C@H](c3ccc(F)cc3Cl)N=C(c3nccs3)N2C1 [Example 168],< 0.1
4,OCC(O)[C@]1(F)CC2=C(c3ccn(C(F)F)n3)[C@H](c3ccc(F)cc3Cl)N=C(c3nccs3)N2C1 (stereo partly shown) [Example 169],0.1 to 0.4
5,OCC(O)[C@@]1(F)CC2=C(c3ccn(C(F)F)n3)[C@H](c3ccc(F)cc3Cl)N=C(c3nccs3)N2C1 (stereo partly shown) [Example 170],0.1 to 0.4
6,C=CC1(F)CC2=C(c3ccn(C(F)F)n3)[C@H](c3ccc(F)cc3Cl)N=C(c3nccs3)N2C1 (stereo partly shown) [Example 171],0.1 to 0.4
7,CCOC(=O)/C=C/[C@]1(F)CC2=C(c3ccn(C(F)F)n3)[C@H](c3ccc(F)cc3Cl)N=C(c3nccs3)N2C1 [Example 172],0.1 to 0.4
8,CCOC(=O)/C=C/[C@@]1(F)CC2=C(c3ccn(C(F)F)n3)[C@H](c3ccc(F)cc3Cl)N=C(c3nccs3)N2C1 [Example 173],< 0.1
9,OC/C=C/[C@]1(F)CC2=C(c3ccn(C(F)F)n3)[C@H](c3ccc(F)cc3Cl)N=C(c3nccs3)N2C1 [Example 174],0.1 to 0.4
10,OC/C=C/[C@@]1(F)CC2=C(c3ccn(C(F)F)c3)[C@H](c3ccc(F)cc3Cl)N=C(c3nccs3)N2C1 [Example 175],0.1 to 0.4
11,CC(O)[C@]1(F)CC2=C(c3ccn(C(F)F)n3)[C@H](c3ccc(F)cc3Cl)N=C(c3nccs3)N2C1 (stereo partly shown) [Example 176],< 0.1
12,CNC(=O)OCC1(F)CC2=C(c3ccn(C(F)F)n3)[C@H](c3ccc(F)cc3Cl)N=C(c3nccs3)N2C1 (stereo partly shown) [Example 178],< 0.1
13,O/N=C/[C@]1(F)CC2=C(c3ccn(C(F)F)n3)[C@H](c3ccc(F)cc3Cl)N=C(c3nccs3)N2C1 [Example 179],> 0.4
14,O/N=C/[C@@]1(F)CC2=C(c3ccn(C(F)F)n3)[C@H](c3ccc(F)cc3Cl)N=C(c3nccs3)N2C1 [Example 180],> 0.4
15,C=CC(O)C1(F)CC2=C(c3ccn(C(F)F)n3)[C@H](c3ccc(F)cc3Cl)N=C(c3nccs3)N2C1 (stereo partly shown) [Example 181],0.1 to 0.4
16,COC(=O)OC[C@]1(F)CC2=C(c3ccn(C(F)F)n3)[C@H](c3ccc(F)cc3Cl)N=C(c3nccs3)N2C1 [Example 182],0.1 to 0.4
17,COC(=O)OC[C@@]1(F)CC2=C(c3ccn(C(F)F)n3)[C@H](c3ccc(F)cc3Cl)N=C(c3nccs3)N2C1 [Example 183],0.1 to 0.4
18,OC(c1c[nH]nn1)C1(F)CC2=C(c3ccn(C(F)F)n3)[C@H](c3ccc(F)cc3Cl)N=C(c3nccs3)N2C1 (stereo partly shown) [Example 184],> 0.4
19,COC(=O)NC[C@]1(F)CC2=C(c3ccn(C(F)F)n3)[C@H](c3ccc(F)cc3Cl)N=C(c3nccs3)N2C1 [Example 185],0.1 to 0.4
20,COC(=O)NC[C@@]1(F)CC2=C(c3ccn(C(F)F)n3)[C@H](c3ccc(F)cc3Cl)N=C(c3nccs3)N2C1 [Example 186],0.1 to 0.4

row,Structure (SMILES),EC50 [µM]
1,O=C(NC[C@@]1(F)CC2=C(c3ccn(C(F)F)n3)[C@H](c3ccc(F)cc3Cl)N=C(c3nccs3)N2C1)OCc1ccccc1 [Example 187],> 0.4
2,COC(=O)c1ccccc1S(=O)(=O)NC[C@@]1(F)CC2=C(c3ccn(C(F)F)n3)[C@H](c3ccc(F)cc3Cl)N=C(c3nccs3)N2C1 [Example 188],> 0.4
3,COC(=O)c1ccccc1S(=O)(=O)NC[C@]1(F)CC2=C(c3ccn(C(F)F)n3)[C@H](c3ccc(F)cc3Cl)N=C(c3nccs3)N2C1 [Example 189],> 0.4
4,COC(=O)c1cccc(S(=O)(=O)NCC2(F)CC3=C(c4ccn(C(F)F)n4)[C@H](c4ccc(F)cc4Cl)N=C(c4nccs4)N3C2)c1 (stereo partly shown) [Example 190],> 0.4
5,COC(=O)c1ccc(S(=O)(=O)NCC2(F)CC3=C(c4ccn(C(F)F)n4)[C@H](c4ccc(F)cc4Cl)N=C(c4nccs4)N3C2)cc1 (stereo partly shown) [Example 191],> 0.4
6,O=C(O)c1ccc(S(=O)(=O)NCC2(F)CC3=C(c4ccn(C(F)F)n4)[C@H](c4ccc(F)cc4Cl)N=C(c4nccs4)N3C2)cc1 (stereo partly shown) [Example 192],> 0.4
7,N#CC[C@]1(F)CC2=C(c3ccn(C(F)F)n3)[C@H](c3ccc(F)cc3Cl)N=C(c3nccs3)N2C1 [Example 193],> 0.4
8,N#CC[C@@]1(F)CC2=C(c3ccn(C(F)F)n3)[C@H](c3ccc(F)cc3Cl)N=C(c3nccs3)N2C1 [Example 194],0.1 to 0.4
9,O=S(=O)(C[C@]1(F)CC2=C(c3ccn(C(F)F)n3)[C@H](c3ccc(F)cc3Cl)N=C(c3nccs3)N2C1)c1ccccc1 [Example 195],< 0.1
10,O=S(=O)(C[C@@]1(F)CC2=C(c3ccn(C(F)F)n3)[C@H](c3ccc(F)cc3Cl)N=C(c3nccs3)N2C1)c1ccccc1 [Example 196],0.1 to 0.4
11,CCC(=O)N[C@H]1CC2=C(c3ccn(C(F)F)n3)[C@H](c3ccc(F)cc3Cl)N=C(c3nccs3)N2C1 [Example 197],0.1 to 0.4
12,COC(=O)N[C@H]1CC2=C(c3ccn(C(F)F)n3)[C@H](c3ccc(F)cc3Cl)N=C(c3nccs3)N2C1 [Example 198],< 0.1
13,CNC(=O)N[C@H]1CC2=C(c3ccn(C(F)F)n3)[C@H](c3ccc(F)cc3Cl)N=C(c3nccs3)N2C1 [Example 199],0.1 to 0.4
14,CCOC(=O)N[C@H]1CC2=C(c3ccn(C(F)F)n3)[C@H](c3ccc(F)cc3Cl)N=C(c3nccs3)N2C1 [Example 201],< 0.1
15,CC(C)OC(=O)N[C@H]1CC2=C(c3ccn(C(F)F)n3)[C@H](c3ccc(F)cc3Cl)N=C(c3nccs3)N2C1 [Example 202],< 0.1
16,CCNC(=O)N[C@H]1CC2=C(c3ccn(C(F)F)n3)[C@H](c3ccc(F)cc3Cl)N=C(c3nccs3)N2C1 [Example 203],< 0.1
17,CC(C)NC(=O)N[C@H]1CC2=C(c3ccn(C(F)F)n3)[C@H](c3ccc(F)cc3Cl)N=C(c3nccs3)N2C1 [Example 204],< 0.1
18,O=C(NC1CC1)N[C@H]1CC2=C(c3ccn(C(F)F)n3)[C@H](c3ccc(F)cc3Cl)N=C(c3nccs3)N2C1 [Example 205],< 0.1
19,O=C(N[C@H]1CC2=C(c3ccn(C(F)F)n3)[C@H](c3ccc(F)cc3Cl)N=C(c3nccs3)N2C1)N1CCCCC1 [Example 206],0.1 to 0.4
20,O=C(N[C@H]1CC2=C(c3ccn(C(F)F)n3)[C@H](c3ccc(F)cc3Cl)N=C(c3nccs3)N2C1)N1CCOCC1 [Example 207],< 0.1

# Same assay, conditions: Hepatitis B virus, HePAD38, 120 h, read-out: HepAD38 EC50 (μM)
row,Structure (SMILES),EC50 [µM]
1,O=C(N[C@H]1CC2=C(c3ccn(C(F)F)n3)[C@H](c3ccc(F)cc3Cl)N=C(c3nccs3)N2C1)Oc1ccccc1 [Example 200],> 0.4
